Measured values as given in ChEMBL document CHEMBL1133144, “Synthesis and structure-activity relationships of a new class of 1-oxacephem-based human chymase inhibitors” (Bioorg Med Chem Lett, 2000).

Tests used:
Serine protease 1 = biological target: T1, Serine protease 1 (Bos taurus, UniProt P00760); test: The compound was evaluated for the inhibitory activity against trypsin
T1 sequence (P00760 whole entry): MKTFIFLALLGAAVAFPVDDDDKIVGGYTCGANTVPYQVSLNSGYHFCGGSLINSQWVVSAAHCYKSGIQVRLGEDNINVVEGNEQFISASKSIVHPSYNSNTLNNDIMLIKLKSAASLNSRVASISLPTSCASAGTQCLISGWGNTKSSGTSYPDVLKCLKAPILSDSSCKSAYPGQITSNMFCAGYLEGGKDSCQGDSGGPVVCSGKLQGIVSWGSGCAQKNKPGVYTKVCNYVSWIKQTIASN

Prothrombin = Prothrombin (Homo sapiens, UniProt P00734); test: The compound was evaluated for the inhibitory activity against thrombin
Plasminogen = Plasminogen (Homo sapiens, UniProt P00747); test: The compound was evaluated for the inhibitory activity against plasmin
Neutrophil elastase = biological target: T2, Neutrophil elastase (Homo sapiens, UniProt P08246); test: The compound was evaluated for the inhibitory activity against human neutrophil elastase
T2 sequence (P08246 whole entry): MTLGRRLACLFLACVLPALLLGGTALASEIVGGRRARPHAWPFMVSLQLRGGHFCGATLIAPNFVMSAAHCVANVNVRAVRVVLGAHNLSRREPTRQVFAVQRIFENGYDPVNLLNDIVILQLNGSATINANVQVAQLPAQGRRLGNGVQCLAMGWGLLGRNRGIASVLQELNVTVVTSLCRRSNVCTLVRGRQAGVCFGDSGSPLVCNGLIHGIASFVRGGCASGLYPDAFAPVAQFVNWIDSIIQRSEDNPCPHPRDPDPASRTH

Cathepsin G = biological target: T3, Cathepsin G (Homo sapiens, UniProt P08311); test: The compound was evaluated for the inhibitory activity against cathepsin G
T3 sequence (P08311 whole entry): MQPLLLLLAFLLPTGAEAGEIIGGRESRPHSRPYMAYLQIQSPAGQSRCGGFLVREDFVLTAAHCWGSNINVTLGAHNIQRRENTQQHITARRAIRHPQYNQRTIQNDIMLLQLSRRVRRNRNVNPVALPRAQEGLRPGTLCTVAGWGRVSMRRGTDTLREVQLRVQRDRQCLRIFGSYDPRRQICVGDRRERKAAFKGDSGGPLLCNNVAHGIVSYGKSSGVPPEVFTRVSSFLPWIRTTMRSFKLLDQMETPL

Chymase = biological target: T4, Chymase (Homo sapiens, UniProt P23946); test: Inhibitory activity against human serine protease chymase
T4 sequence (P23946 whole entry): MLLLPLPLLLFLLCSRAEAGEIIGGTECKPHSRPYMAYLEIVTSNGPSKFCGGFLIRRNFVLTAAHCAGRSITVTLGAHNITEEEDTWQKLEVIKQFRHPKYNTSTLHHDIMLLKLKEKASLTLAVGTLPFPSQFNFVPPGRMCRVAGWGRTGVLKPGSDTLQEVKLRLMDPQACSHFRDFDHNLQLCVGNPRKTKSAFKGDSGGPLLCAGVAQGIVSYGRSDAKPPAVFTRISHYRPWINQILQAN

Chain of Plasminogen (P00747 97-580 limits assumed): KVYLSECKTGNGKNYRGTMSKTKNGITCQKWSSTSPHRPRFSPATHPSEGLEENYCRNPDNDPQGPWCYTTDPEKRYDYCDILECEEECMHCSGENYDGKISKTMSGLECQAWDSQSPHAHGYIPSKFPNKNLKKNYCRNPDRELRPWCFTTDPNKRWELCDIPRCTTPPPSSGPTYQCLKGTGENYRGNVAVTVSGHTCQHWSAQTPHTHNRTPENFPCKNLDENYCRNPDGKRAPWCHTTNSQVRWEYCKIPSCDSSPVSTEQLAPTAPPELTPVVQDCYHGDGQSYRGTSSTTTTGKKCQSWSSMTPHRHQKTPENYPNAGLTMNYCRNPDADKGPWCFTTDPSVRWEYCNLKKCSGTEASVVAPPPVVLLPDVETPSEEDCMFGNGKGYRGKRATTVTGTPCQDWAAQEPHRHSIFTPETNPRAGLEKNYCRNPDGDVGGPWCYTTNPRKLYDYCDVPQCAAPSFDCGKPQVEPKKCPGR
Chain of Plasminogen (P00747 581-810 limits assumed): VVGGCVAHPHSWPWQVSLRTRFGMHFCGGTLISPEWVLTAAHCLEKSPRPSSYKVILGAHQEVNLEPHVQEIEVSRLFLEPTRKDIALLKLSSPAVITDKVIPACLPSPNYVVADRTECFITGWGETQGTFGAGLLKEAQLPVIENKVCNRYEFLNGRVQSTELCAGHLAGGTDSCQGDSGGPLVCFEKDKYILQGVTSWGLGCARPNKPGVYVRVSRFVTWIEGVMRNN

| Structure (SMILES) | IC50 (Chymase) [nM] | further results |
| --- | --- | --- |
| COc1ccccc1C(=O)N[C@]1(OC)C(=O)N2C(C(=O)OCc3cccc(C)c3)=C(CSc3nncn3CC(=O)O)CO[C@@H]21 | – | IC50 (Serine protease 1): 440 nM; IC50 (Prothrombin): 430 nM; IC50 (Plasminogen): > 10000 nM; IC50 (Neutrophil elastase): > 10000 nM; IC50 (Cathepsin G): 230 nM |
| CO[C@@]1(NC(=O)Cc2ccc(O)cc2)C(=O)N2C(C(=O)OCc3cccc(C)c3)=C(CCl)CO[C@@H]21 | 150 | – |
| CO[C@@]1(NC(=O)Cc2ccc(O)cc2)C(=O)N2C(C(=O)OCc3cccc(C)c3)=C(C)CO[C@@H]21 | > 10000 | – |
| CO[C@@]1(NC(=O)Cc2ccc(O)cc2)C(=O)N2C(C(=O)N3CCCC3)=C(CSc3nnnn3C)CO[C@@H]21 | > 10000 | – |

Continued, in another order:

| IC50 (Chymase) [nM] | Structure (SMILES) | further results |
| --- | --- | --- |
| 1700 | CO[C@@]1(NC(=O)c2ccccc2Cl)C(=O)N2C(C(=O)OC(c3ccccc3)c3ccccc3)=C(CSc3nnnn3C)CO[C@@H]21 | – |
| 6800 | CO[C@@]1(NC(=O)Cc2ccc(Br)cc2)C(=O)N2C(C(=O)OC(c3ccccc3)c3ccccc3)=C(CSc3nnnn3C)CO[C@@H]21 | – |
| 4000 | CO[C@@]1(NC(=O)Cc2ccc(O)cc2)C(=O)N2C(C(=O)OCc3cccc(C)c3)=C(CSc3nncn3C)CO[C@@H]21 | – |
| > 10000 | COc1ccc(C(=O)N[C@]2(OC)C(=O)N3C(C(=O)OC(c4ccccc4)c4ccccc4)=C(CSc4nnnn4C)CO[C@@H]32)cc1 | – |
| > 10000 | CO[C@@]1(NC(=O)Cc2ccc(-c3ccccc3)cc2)C(=O)N2C(C(=O)OC(c3ccccc3)c3ccccc3)=C(CSc3nnnn3C)CO[C@@H]21 | – |
